From patent publication US8410302B2, “Methoxyimino compounds and fungicide composition comprising same” (Kyung Nong Corporation, priority 2007, dated 2013)

Experiments:
[1] = test system: Pyricularia oryzae Carvara KA301; experiment: whole plant or invertebrate; assay type: in vivo; conditions: for pest or weed control at 2 ppm / pest or weed control at 10 ppm / pest or weed control at 50 ppm / pest or weed control at 100 ppm: Pyricularia oryzae, read-out: RCB control value (C.V.)
Phytophthora infestans = experiment: whole plant or invertebrate; assay type: in vivo; conditions: for pest or weed control at 10 ppm / pest or weed control at 50 ppm / pest or weed control at 100 ppm / pest or weed control at 2 ppm: Phytophthora infestans, in Solanum lycopersicum, read-out: TLB control value (C.V.)
Puccinia recondita = experiment: Fungicidal activity against wheat leaf rust (WLR) disease, control value; assay type: in vivo; conditions: for pest or weed control at 2 ppm / pest or weed control at 10 ppm / pest or weed control at 50 ppm / pest or weed control at 100 ppm: Puccinia recondita, read-out: WLR control value (C.V.)
Botrytis cinerae = experiment: Fungicidal activity against cucumber gray mold rot (CGM) disease, control value; assay type: in vivo; conditions: 100 ppm; for pest or weed control at 100 ppm: Botrytis, read-out: CGM control value (C.V.)
Erysiphae graminis = experiment: Fungicidal activity against barley powdery mildew (BPM) disease, control value; assay type: in vivo; conditions: for pest or weed control at 2 ppm / pest or weed control at 10 ppm / pest or weed control at 50 ppm / pest or weed control at 100 ppm: 168 h, read-out: BPM control value (C.V.)
Rhizoctonia solani AG-1 = experiment: Fungicidal activity against rice sheath blight (RSB) disease, control value; conditions: for pest or weed control at 2 ppm / pest or weed control at 10 ppm / pest or weed control at 50 ppm / pest or weed control at 100 ppm: Rhizoctonia solani, AG1, in Oryza sativa, read-out: RSB control value (C.V.)

Compound `CNC(=O)/C(=N/OC)c1ccccc1COc1c(C)cccc1C=C(Br)Br` [Example 74, (E)-2-(2-((2-(2,2-dibromovinyl)-6-methylphenoxy)methyl)phenyl)-2-methoxyimino-N-methylacetamide] has a pest or weed control at 2 ppm [1] of 10%, a pest or weed control at 10 ppm [1] of 90% and a pest or weed control at 50 ppm [1] of 100%. The pest or weed control at 100 ppm [1] was 100%, the pest or weed control at 10 ppm (Phytophthora infestans) was 80% and the pest or weed control at 50 ppm (Phytophthora infestans) was 90%. It also gave a pest or weed control at 100 ppm (Phytophthora infestans) of 100%, a pest or weed control at 2 ppm (Puccinia recondita; 2 ppm) of 90% and a pest or weed control at 10 ppm (Puccinia recondita; 10 ppm) of 99%. For the same compound, the pest or weed control at 50 ppm (Puccinia recondita; 50 ppm) was 100%, the pest or weed control at 100 ppm (Puccinia recondita; 100 ppm) was 100% and the pest or weed control at 100 ppm (Botrytis cinerae) was 35%. For the same compound, the pest or weed control at 2 ppm (Erysiphae graminis; 2 ppm) was 92%, the pest or weed control at 10 ppm (Erysiphae graminis; 10 ppm) was 100% and the pest or weed control at 50 ppm (Erysiphae graminis; 50 ppm) was 100%. The pest or weed control at 100 ppm (Erysiphae graminis; 100 ppm) was 100%, the pest or weed control at 2 ppm (Rhizoctonia solani AG-1) was 67% and the pest or weed control at 10 ppm (Rhizoctonia solani AG-1) was 80%. For the same compound, the pest or weed control at 50 ppm (Rhizoctonia solani AG-1) was 90% and the pest or weed control at 100 ppm (Rhizoctonia solani AG-1) was 100%.

`CO/N=C(/C(=O)OC)c1ccccc1COc1c(OC)ccc(C=C(Br)Br)c1Br` [Example 75, methyl-(E)-2-(2-((2-bromo-3-(2,2-dibromovinyl)-6-methoxyphenoxy)methyl)phenyl)-2-methoxyiminoacetate] gave a pest or weed control at 2 ppm [1] of 30%, a pest or weed control at 10 ppm [1] of 90% and a pest or weed control at 50 ppm [1] of 100%. For the same compound, the pest or weed control at 100 ppm [1] was 100%, the pest or weed control at 2 ppm (Phytophthora infestans) was 70% and the pest or weed control at 10 ppm (Phytophthora infestans) was 90%. It also gave a pest or weed control at 50 ppm (Phytophthora infestans) of 98%, a pest or weed control at 100 ppm (Phytophthora infestans) of 100% and a pest or weed control at 2 ppm (Puccinia recondita; 2 ppm) of 95%. The pest or weed control at 10 ppm (Puccinia recondita; 10 ppm) was 100%, the pest or weed control at 50 ppm (Puccinia recondita; 50 ppm) was 100% and the pest or weed control at 100 ppm (Puccinia recondita; 100 ppm) was 100%. For the same compound, the pest or weed control at 100 ppm (Botrytis cinerae) was 40%, the pest or weed control at 2 ppm (Erysiphae graminis; 2 ppm) was 92% and the pest or weed control at 10 ppm (Erysiphae graminis; 10 ppm) was 98%. It also gave a pest or weed control at 50 ppm (Erysiphae graminis; 50 ppm) of 100%, a pest or weed control at 100 ppm (Erysiphae graminis; 100 ppm) of 100% and a pest or weed control at 2 ppm (Rhizoctonia solani AG-1) of 65%. For the same compound, the pest or weed control at 10 ppm (Rhizoctonia solani AG-1) was 98%, the pest or weed control at 50 ppm (Rhizoctonia solani AG-1) was 100% and the pest or weed control at 100 ppm (Rhizoctonia solani AG-1) was 100%.

`CNC(=O)/C(=N/OC)c1ccccc1COc1c(OC)ccc(C=C(Br)Br)c1Br` [Example 76] was tested, and the “RCB control value (C.V.)” value ([1]; 2 ppm) was 30%, the “RCB control value (C.V.)” value ([1]; 10 ppm) was 90% and the “RCB control value (C.V.)” value ([1]; 50 ppm) was 100%. The “RCB control value (C.V.)” value ([1]; 100 ppm) was 100%, the “TLB control value (C.V.)” value (Phytophthora infestans; 2 ppm) was 70% and the “TLB control value (C.V.)” value (Phytophthora infestans; 10 ppm) was 90%. The “TLB control value (C.V.)” value (Phytophthora infestans; 50 ppm) was 98%, the “TLB control value (C.V.)” value (Phytophthora infestans; 100 ppm) was 100% and the “WLR control value (C.V.)” value (Puccinia recondita; 2 ppm) was 95%. For the same compound, the “WLR control value (C.V.)” value (Puccinia recondita; 10 ppm) was 100%, the “WLR control value (C.V.)” value (Puccinia recondita; 50 ppm) was 100% and the “WLR control value (C.V.)” value (Puccinia recondita; 100 ppm) was 100%. For the same compound, the “CGM control value (C.V.)” value (Botrytis cinerae) was 45%, the “BPM control value (C.V.)” value (Erysiphae graminis; 2 ppm) was 95% and the “BPM control value (C.V.)” value (Erysiphae graminis; 10 ppm) was 100%. For the same compound, the “BPM control value (C.V.)” value (Erysiphae graminis; 50 ppm) was 100%, the “BPM control value (C.V.)” value (Erysiphae graminis; 100 ppm) was 100% and the “RSB control value (C.V.)” value (Rhizoctonia solani AG-1; 2 ppm) was 65%. For the same compound, the “RSB control value (C.V.)” value (Rhizoctonia solani AG-1; 10 ppm) was 98%, the “RSB control value (C.V.)” value (Rhizoctonia solani AG-1; 50 ppm) was 100% and the “RSB control value (C.V.)” value (Rhizoctonia solani AG-1; 100 ppm) was 100%.

Work on `CO/N=C(/C(=O)OC)c1ccccc1COc1ccc(C=C(Br)Br)cc1Br` [Example 77, methyl-(E)-2-(2-((2-bromo-4-(2,2-dibromovinyl)phenoxy)methyl)phenyl)-2-methoxyiminoacetate] yielded a pest or weed control at 2 ppm [1] of 30%, a pest or weed control at 10 ppm [1] of 90% and a pest or weed control at 50 ppm [1] of 100%. It also gave a pest or weed control at 100 ppm [1] of 100%, a pest or weed control at 2 ppm (Phytophthora infestans) of 70% and a pest or weed control at 10 ppm (Phytophthora infestans) of 90%. For the same compound, the pest or weed control at 50 ppm (Phytophthora infestans) was 98%, the pest or weed control at 100 ppm (Phytophthora infestans) was 100% and the pest or weed control at 2 ppm (Puccinia recondita; 2 ppm) was 95%. The pest or weed control at 10 ppm (Puccinia recondita; 10 ppm) was 100%, the pest or weed control at 50 ppm (Puccinia recondita; 50 ppm) was 100% and the pest or weed control at 100 ppm (Puccinia recondita; 100 ppm) was 100%. For the same compound, the pest or weed control at 100 ppm (Botrytis cinerae) was 70%, the pest or weed control at 2 ppm (Erysiphae graminis; 2 ppm) was 90% and the pest or weed control at 10 ppm (Erysiphae graminis; 10 ppm) was 100%. The pest or weed control at 50 ppm (Erysiphae graminis; 50 ppm) was 100%, the pest or weed control at 100 ppm (Erysiphae graminis; 100 ppm) was 100% and the pest or weed control at 2 ppm (Rhizoctonia solani AG-1) was 65%. It also gave a pest or weed control at 10 ppm (Rhizoctonia solani AG-1) of 98%, a pest or weed control at 50 ppm (Rhizoctonia solani AG-1) of 100% and a pest or weed control at 100 ppm (Rhizoctonia solani AG-1) of 100%.

Work on `CNC(=O)/C(=N/OC)c1ccccc1COc1ccc(C=C(Br)Br)cc1Br` [Example 78, (E)-2-(2-((2-bromo-4-(2,2-dibromovinyl)phenoxy)methyl)phenyl)-2-methoxyimino-N-methylacetamide] yielded a pest or weed control at 2 ppm [1] of 40%, a pest or weed control at 10 ppm [1] of 90% and a pest or weed control at 50 ppm [1] of 98%. It also gave a pest or weed control at 100 ppm [1] of 100%, a pest or weed control at 2 ppm (Phytophthora infestans) of 70% and a pest or weed control at 10 ppm (Phytophthora infestans) of 90%. The pest or weed control at 50 ppm (Phytophthora infestans) was 98%, the pest or weed control at 100 ppm (Phytophthora infestans) was 100% and the pest or weed control at 2 ppm (Puccinia recondita; 2 ppm) was 95%. It also gave a pest or weed control at 10 ppm (Puccinia recondita; 10 ppm) of 98%, a pest or weed control at 50 ppm (Puccinia recondita; 50 ppm) of 100% and a pest or weed control at 100 ppm (Puccinia recondita; 100 ppm) of 100%. The pest or weed control at 100 ppm (Botrytis cinerae) was 40%, the pest or weed control at 2 ppm (Erysiphae graminis; 2 ppm) was 90% and the pest or weed control at 10 ppm (Erysiphae graminis; 10 ppm) was 100%. The pest or weed control at 50 ppm (Erysiphae graminis; 50 ppm) was 100%, the pest or weed control at 100 ppm (Erysiphae graminis; 100 ppm) was 100% and the pest or weed control at 2 ppm (Rhizoctonia solani AG-1) was 65%. The pest or weed control at 10 ppm (Rhizoctonia solani AG-1) was 98%, the pest or weed control at 50 ppm (Rhizoctonia solani AG-1) was 100% and the pest or weed control at 100 ppm (Rhizoctonia solani AG-1) was 100%.

Work on `CO/N=C(/C(=O)OC)c1ccccc1COc1ccc(F)cc1C=C(Br)Br` [Example 79, methyl-(E)-2-(2-((2-(2,2-dibromovinyl)-4-fluorophenoxy)methyl)phenyl)-2-methoxyiminoacetate] yielded a pest or weed control at 2 ppm [1] of 80%, a pest or weed control at 10 ppm [1] of 98% and a pest or weed control at 50 ppm [1] of 100%. It also gave a pest or weed control at 100 ppm [1] of 100%, a pest or weed control at 2 ppm (Phytophthora infestans) of 70% and a pest or weed control at 10 ppm (Phytophthora infestans) of 90%. For the same compound, the pest or weed control at 50 ppm (Phytophthora infestans) was 98%, the pest or weed control at 100 ppm (Phytophthora infestans) was 100% and the pest or weed control at 2 ppm (Puccinia recondita; 2 ppm) was 95%. It also gave a pest or weed control at 10 ppm (Puccinia recondita; 10 ppm) of 100%, a pest or weed control at 50 ppm (Puccinia recondita; 50 ppm) of 100% and a pest or weed control at 100 ppm (Puccinia recondita; 100 ppm) of 100%. It also gave a pest or weed control at 100 ppm (Botrytis cinerae) of 40%, a pest or weed control at 2 ppm (Erysiphae graminis; 2 ppm) of 90% and a pest or weed control at 10 ppm (Erysiphae graminis; 10 ppm) of 100%. The pest or weed control at 50 ppm (Erysiphae graminis; 50 ppm) was 100%, the pest or weed control at 100 ppm (Erysiphae graminis; 100 ppm) was 100% and the pest or weed control at 2 ppm (Rhizoctonia solani AG-1) was 85%. For the same compound, the pest or weed control at 10 ppm (Rhizoctonia solani AG-1) was 98%, the pest or weed control at 50 ppm (Rhizoctonia solani AG-1) was 100% and the pest or weed control at 100 ppm (Rhizoctonia solani AG-1) was 100%.

Work on `CNC(=O)/C(=N/OC)c1ccccc1COc1ccc(F)cc1C=C(Br)Br` [Example 80, (E)-2-(2-((2-(2,2-dibromovinyl)-4-fluorophenoxy)methyl)phenyl)-2-methoxyimino-N-methylacetamide] yielded a pest or weed control at 2 ppm [1] of 35%, a pest or weed control at 10 ppm [1] of 90% and a pest or weed control at 50 ppm [1] of 100%. The pest or weed control at 100 ppm [1] was 100%, the pest or weed control at 2 ppm (Phytophthora infestans) was 70% and the pest or weed control at 10 ppm (Phytophthora infestans) was 90%. For the same compound, the pest or weed control at 50 ppm (Phytophthora infestans) was 98%, the pest or weed control at 100 ppm (Phytophthora infestans) was 100% and the pest or weed control at 2 ppm (Puccinia recondita; 2 ppm) was 95%. The pest or weed control at 10 ppm (Puccinia recondita; 10 ppm) was 100%, the pest or weed control at 50 ppm (Puccinia recondita; 50 ppm) was 100% and the pest or weed control at 100 ppm (Puccinia recondita; 100 ppm) was 100%. It also gave a pest or weed control at 100 ppm (Botrytis cinerae) of 55%, a pest or weed control at 2 ppm (Erysiphae graminis; 2 ppm) of 90% and a pest or weed control at 10 ppm (Erysiphae graminis; 10 ppm) of 100%. It also gave a pest or weed control at 50 ppm (Erysiphae graminis; 50 ppm) of 100%, a pest or weed control at 100 ppm (Erysiphae graminis; 100 ppm) of 100% and a pest or weed control at 2 ppm (Rhizoctonia solani AG-1) of 65%. It also gave a pest or weed control at 10 ppm (Rhizoctonia solani AG-1) of 98%, a pest or weed control at 50 ppm (Rhizoctonia solani AG-1) of 100% and a pest or weed control at 100 ppm (Rhizoctonia solani AG-1) of 100%.
